Experimental findings from US20260097022A1, “COMPOUNDS AND USES THEREOF” (Integrated Biosciences, Inc., priority 2023, published 2026) are described below.

Structures are written as SMILES. Counter-ions that a name gives are not always drawn.

The first assay deals with etoposide-treated IMR-90 cells. Nature of the assay: Etoposide-induced senescence model, resazurin cell viability (screen and dose-response). It is filed as cell-based, human. Conditions: 1 μM, 3 days. How it is done:
Cell culture. Human lung fibroblast (IMR-90) cells were obtained from ATCC (CCL-186) and passaged less than 10 times (less than 30 population doublings) for all experiments described in this example, with the exception of high-passage cells used in the model of replicative senescence (see the section on Replicative senescence below). Cells were cultured in growth media comprising Eagle's Minimum Essential Medium (EMEM: ATCC 30-2003) supplemented with 10% fetal bovine serum (FBS: Thermo Fisher 16140071) and 1% penicillin-streptomycin (Thermo Fisher 15070063). Cells were incubated in a humidity-controlled incubator at 37° C., with 5% CO2. Cells were detached using trypsin-EDTA (0.05%; Gibco 25300120).
Etoposide-induced senescence. IMR-90 cells were cultured as described above. At between 30 to 50% confluence, the media was replaced with complete growth media containing vehicle (0.5% dimethyl sulfoxide: DMSO, MilliporeSigma D5879) or complete growth media containing 50 μM etoposide (prepared as a 1:200 dilution of a 10 mM stock solution in DMSO; etoposide, MilliporeSigma E1383). Cells were treated for 2 days, after which the media was replaced with fresh growth media and cells were allowed to recover for 4 days. Cells were then plated as described below.
Chemical screening. For all screening experiments. 99 μL of cells were plated into each well of a 96-well clear flat-bottom, black polystyrene tissue-culture-treated plate (Corning 3904) at a density of ˜10+ cells/well. Plates were incubated overnight for adhesion. The day after plating. 1 μL of each compound, prepared as either a 1 mM stock solution in DMSO (10 μM final concentration screen) or 0.1 mM stock solution in DMSO (1 μM final concentration screen), was added to each well using an Agilent Bravo liquid handler. A built-in slow mixing step involving aspirating and dispensing was used to enhance distribution of the added compounds in solution. Cells were incubated for 3 days, after which resazurin (MilliporeSigma R^7017) was added to each well to a final concentration of 0.15 mM. After an additional 1 day of incubation, the fluorescence excitation/emission at 550/590 nm was read using a SpectraMaxR M3 plate reader and manufacturer software (SoftMax Pro R 6). Experiments were performed in biological duplicate.
Three-fold serial dilutions of compound were prepared in DMSO, then added to cell plates (final concentration of DMSO. 1%). Cell viability was then assayed as detailed above, and resazurin fluorescence values were linearly interpolated with respect to values from empty and positive control (non-treatment) wells. Experiments were performed in biological duplicate each on two independent occasions. When possible, chemical stocks from commercial suppliers were used: econazole nitrate (Cayman Chemical 20223), artenimol (Cayman Chemical 19846), and ABT-263 (Cayman Chemical 11500) were from Cayman Chemical, and dehydrodeguelin was aliquoted from the screening library.
Calculation of cellular viability values in dose-response curves. […] For each sample, the fluorescence intensity value was normalized by the mean of two untreated control values. Cellular viability values are therefore indicated as fractions of the cellular viability of untreated controls. Vehicle (1% DMSO) control values are included in each dose-response curve. Experiments were performed in biological duplicate each on two independent occasions.
Calculation of baseline cellular viability values. […] Additionally, baseline cellular viability values were calculated for untreated cells at the start of the experiment. Resazurin was added to a final concentration of 0.15 mM on the day of seeding (corresponding to day 0 in FIG. 7).
In general terms: Resazurin is reduced to fluorescent resorufin, in cell work by metabolically active cells.
Take `Cc1noc(NS(=O)(=O)c2ccc(N)cc2)c1C` [sulfisoxazole, reference compound]: the “senolytic activity in screen” value is on record as “active”.
On the same count and under the same terms, with `CN(C)CCCN1c2ccccc2CCc2ccccc21` [imipramine hydrochloride, reference compound] the entry was “active”.

Still in this assay, the particulars now being: 10 μM, 3 days; active: control viability >0.5, Snc/control ratio <0.7.
Take `CN(C)CC#Cc1ccc(OCCCc2sc(N3CCc4cccc(C(=O)Nc5nc6ccccc6s5)c4C3)nc2C(=O)O)c(F)c1` [A-1155463, reference compound]: the “senolytic activity in screen” value was “active”.

The assay is the same for the next values; noted with them: etoposide-induced senescence model; ratio of IC50 values between etoposide- and DMSO-treated IMR-90 fibroblasts.
With `CC(=O)c1ccc(NC(=O)CSc2nc3ccc(NC(=O)c4ccc(Cl)cc4)cc3s2)cc1` [compound 114], the “Therapeutic Index (TI)” value is listed as “++ (compounds with a TI of 1 to 5 were labelled as ++)”.
Consider `COc1ccc(NC(=O)CSc2nc3ccc(NC(=O)c4ccccc4C)cc3s2)cc1` [compound 52], for which the “Therapeutic Index (TI)” value is “++ (compounds with a TI of 1 to 5 were labelled as ++)”.
On the same count and under the same terms, then `CCc1cccc(CC)c1NC(=O)CSc1nc2ccc(NC(=O)c3ccccc3)cc2s1` [compound 97], with “++ (compounds with a TI of 1 to 5 were labelled as ++)”.
As to `Cc1cccc(NC(=O)CSc2nc3ccc(NC(=O)c4ccccc4Cl)cc3s2)c1C` [compound 95], the “Therapeutic Index (TI)” value was “++ (compounds with a TI of 1 to 5 were labelled as ++)”.
For the molecule `Cc1cccc(NC(=O)CSc2nc3ccc(NC(=O)c4cccc(C)c4)cc3s2)c1` [compound 136], the “Therapeutic Index (TI)” value is listed as “++ (compounds with a TI of 1 to 5 were labelled as ++)”.
The same measure, in the same setting: with `Cc1ccc(C(=O)Nc2ccc3nc(SCC(=O)N(C)c4ccccc4)sc3c2)cc1` [compound 81] the entry was “++ (compounds with a TI of 1 to 5 were labelled as ++)”; with `COc1ccc(C(=O)Nc2ccc3nc(SCC(=O)Nc4cc(Cl)ccc4C)sc3c2)cc1` [compound 113], “++ (compounds with a TI of 1 to 5 were labelled as ++)”; with `O=C(CSc1nc2ccc(NC(=O)c3cccc4ccccc34)cc2s1)Nc1ccccc1F` [compound 92], “++ (compounds with a TI of 1 to 5 were labelled as ++)”.
Still for that read-out and setting: with `CCCCOc1ccc(NC(=O)CSc2nc3ccc(NC(=O)c4ccc(OCCCC)cc4)cc3s2)cc1` [compound 86] the entry was “++ (compounds with a TI of 1 to 5 were labelled as ++)”; with `CCCCOc1ccc(NC(=O)CSc2nc3ccc(NC(=O)c4ccccc4)cc3s2)cc1` [compound 89], “++ (compounds with a TI of 1 to 5 were labelled as ++)”; with `COc1ccccc1C(=O)Nc1ccc2nc(SCC(=O)N(C)c3ccccc3)sc2c1` [compound 71], “++ (compounds with a TI of 1 to 5 were labelled as ++)”.
Regarding `CCCCOc1ccc(NC(=O)CSc2nc3ccc(NC(=O)c4ccc(C)cc4)cc3s2)cc1` [compound 34], the “Therapeutic Index (TI)” value is “++ (compounds with a TI of 1 to 5 were labelled as ++)”.
The same measure, in the same setting: with `CCCCOc1ccc(C(=O)Nc2ccc3nc(SCC(=O)Nc4ccc(C(C)C)cc4)sc3c2)cc1` [compound 82] the entry was “++ (compounds with a TI of 1 to 5 were labelled as ++)”.
Take `Cc1ccccc1C(=O)Nc1ccc2nc(SCC(=O)Nc3ccccc3Cl)sc2c1` [compound 110]: the “Therapeutic Index (TI)” value was “++ (compounds with a TI of 1 to 5 were labelled as ++)”.
Still for that read-out and setting: then `COc1ccc(C(=O)Nc2ccc3nc(SCC(=O)N4CCc5ccccc54)sc3c2)cc1` [compound 33], with “++ (compounds with a TI of 1 to 5 were labelled as ++)”.
Consider `COc1ccccc1C(=O)Nc1ccc2nc(SCC(=O)Nc3ccc(Cl)cc3)sc2c1` [compound 112], for which the “Therapeutic Index (TI)” value was “++ (compounds with a TI of 1 to 5 were labelled as ++)”.
Turning to `O=C(CSc1nc2ccc(NC(=O)c3ccccc3)cc2s1)NC[C@H]1CCCO1` [compound 8], the “Therapeutic Index (TI)” value is given as “+++ (compounds with a TI of >5 were labeled as +++)”.
Still for that read-out and setting: with `Cc1ccc(C(=O)Nc2ccc3nc(SCC(=O)N4CCc5ccccc54)sc3c2)cc1` [compound 18] the entry was “+++ (compounds with a TI of >5 were labeled as +++)”; with `CCOc1ccc(NC(=O)CSc2nc3ccc(NC(=O)c4cccc(C)c4)cc3s2)cc1` [compound 2], “+++ (compounds with a TI of >5 were labeled as +++)”.
Take `COc1ccc(NC(=O)CSc2nc3ccc(NC(=O)c4ccc(OC)cc4)cc3s2)cc1` [compound 85]: the “Therapeutic Index (TI)” value is on record as “++ (compounds with a TI of 1 to 5 were labelled as ++)”.
Same read-out and setting: with `Cc1ccc(NC(=O)CSc2nc3ccc(NC(=O)c4ccccc4F)cc3s2)cc1Cl` [compound 143] the entry was “+ (Compounds with a TI of <1 were labelled as +)”; with `COc1ccc(NC(=O)CSc2nc3ccc(NC(=O)c4cccc(F)c4)cc3s2)cc1` [compound 48], “++ (compounds with a TI of 1 to 5 were labelled as ++)”; with `O=C(CSc1nc2ccc(NC(=O)c3ccccc3)cc2s1)Nc1ccc(F)cc1` [compound 140], “++ (compounds with a TI of 1 to 5 were labelled as ++)”.
The same measure, in the same setting: with `Cc1cccc(C(=O)Nc2ccc3nc(SCC(=O)Nc4ccccc4)sc3c2)c1` [compound 106] the entry was “++ (compounds with a TI of 1 to 5 were labelled as ++)”; with `COc1ccccc1C(=O)Nc1ccc2nc(SCC(=O)Nc3c(C)cccc3C)sc2c1` [compound 59], “++ (compounds with a TI of 1 to 5 were labelled as ++)”; with `CCOc1ccc(C(=O)Nc2ccc3nc(SCC(=O)Nc4cc(C)cc(C)c4)sc3c2)cc1` [compound 43], “++ (compounds with a TI of 1 to 5 were labelled as ++)”.
Still for that read-out and setting: then `O=C(CSc1nc2ccc(NC(=O)c3ccccc3Br)cc2s1)Nc1ccccc1` [compound 127], with “++ (compounds with a TI of 1 to 5 were labelled as ++)”; and `O=C(CSc1nc2ccc(NC(=O)c3ccccc3)cc2s1)Nc1cccc(C(F)(F)F)c1` [compound 68], with “++ (compounds with a TI of 1 to 5 were labelled as ++)”; and `COc1ccccc1C(=O)Nc1ccc2nc(SCC(=O)Nc3c(C)cc(C)cc3C)sc2c1` [compound 44], with “++ (compounds with a TI of 1 to 5 were labelled as ++)”.
In the case of `COc1cccc(NC(=O)CSc2nc3ccc(NC(=O)c4ccccc4C)cc3s2)c1` [compound 158], the “Therapeutic Index (TI)” value is “+ (Compounds with a TI of <1 were labelled as +)”.
The same measure, in the same setting: with `COc1cccc(NC(=O)CSc2nc3ccc(NC(=O)c4ccccc4)cc3s2)c1` [compound 153] the entry was “+ (Compounds with a TI of <1 were labelled as +)”; with `O=C(CSc1nc2ccc(NC(=O)c3ccccc3)cc2s1)Nc1ccccc1C(F)(F)F` [compound 128], “++ (compounds with a TI of 1 to 5 were labelled as ++)”; with `O=C(CSc1nc2ccc(NC(=O)c3ccccc3F)cc2s1)NC1CC1` [compound 116], “++ (compounds with a TI of 1 to 5 were labelled as ++)”.
In the case of `CCCCOc1ccc(C(=O)Nc2ccc3nc(SCC(=O)Nc4ccc(CC)cc4)sc3c2)cc1` [compound 124], the “Therapeutic Index (TI)” value is “++ (compounds with a TI of 1 to 5 were labelled as ++)”.
Still for that read-out and setting: then `CCOc1ccc(NC(=O)C(C)Sc2nc3ccc(NC(=O)c4ccccc4)cc3s2)cc1` (stereo not drawn) [compound 38], with “++ (compounds with a TI of 1 to 5 were labelled as ++)”; and `CCc1cccc(CC)c1NC(=O)CSc1nc2ccc(NC(=O)c3cccc(C)c3)cc2s1` [compound 32], with “++ (compounds with a TI of 1 to 5 were labelled as ++)”.
For the molecule `Cc1ccc(NC(=O)CSc2nc3ccc(NC(=O)c4ccccc4C)cc3s2)cc1` [compound 141], the “Therapeutic Index (TI)” value is given as “++ (compounds with a TI of 1 to 5 were labelled as ++)”.
Still for that read-out and setting: with `CCOc1ccc(C(=O)Nc2ccc3nc(SCC(=O)Nc4ccccc4Cl)sc3c2)cc1` [compound 64] the entry was “++ (compounds with a TI of 1 to 5 were labelled as ++)”.
On the same count and under the same terms, with `CCCCOc1ccc(NC(=O)CSc2nc3ccc(NC(=O)c4ccc(Cl)cc4)cc3s2)cc1` [compound 77] the entry was “++ (compounds with a TI of 1 to 5 were labelled as ++)”.
